Source: ChEMBL document CHEMBL1201862, “PubChem BioAssay data set” (2004)
Values belong to the molecule of their own block, whether it stands above or below them. The source made the active and inactive calls.

Tests used:
[1] = P. falciparum Dd2 growth inhibitors, dose response, SYBR Green, dry powder samples (AID 1159566); assay type: functional, cell-based;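 note: potency for growth inhibition with lower SYBR green DNA signal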
[2] = HepG2 cell cytotoxicity, dose response, cytotoxicity control, plate reader, dry powder samples (AID 1159569); assay type: functional, cell-based;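 note: inhibitor potency with signal falling toward the positive control level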
[3] = P. falciparum 3D7-ScDHODH growth inhibitors, dose response, SYBR Green, dry powder samples (AID 1159570); assay type: functional, cell-based;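 note: parasite growth measured after 72 hours of compound exposure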
[4] = P. falciparum Dd2 growth inhibitors, dose response, SYBR Green, cherry-picked samples (AID 1159567); assay type: functional, cell-based
[5] = P. falciparum ATP4 D1247Y mutant growth inhibitors, dose response, NITD609-resistant line, SYBR Green, dry powder (AID 1159571); assay type: functional, cell-based;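 note: parasites synchronized at ring stage by sorbitol before testing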
[6] = molecular target: 1-phosphatidylinositol 4,5-bisphosphate phosphodiesterase beta-3 (Homo sapiens, UniProt Q01970); experiment: Fluorescence-based biochemical high throughput dose response assay to identify inhibitors of phospholipase C isozymes (PLC-B3).
[7] = molecular target: 1-phosphatidylinositol 4,5-bisphosphate phosphodiesterase gamma-1 (Homo sapiens, UniProt P19174); experiment: Counterscreen for inhibitors of phospholipase C isozymes (PLC-B3): Fluorescence-based biochemical high throughput dose response assay to identify inhibitors of phospholipase C isozymes (PLC-gamma1).
[8] = ADAM10 inhibitors, peptide cleavage, dose response, biochemical, QFRET (AID 743254);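 note: ADAM10 enzyme with the DM2 quenched FRET peptide as substrate; EDANS fluorescence gain as the protease cuts the substrate; inhibitor potency against ADAM10 proteolytic activity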
[9] = molecular target: Disintegrin and metalloproteinase domain-containing protein 17 (Homo sapiens, UniProt P78536); experiment: ADAM17 protease inhibitors, dose response, counter-screen for ADAM10 exosite inhibitor project, biochemical, quenched FRET substrate (AID 743253)
[10] = ZM109 Env clade C HIV-1 fusion inhibitors, dose response, HeLa effector, CEM target cells, luciferase, cherry-pick (AID 652058); assay type: functional, cell-based
[11] = inhibitors of clade B AD8 Env fusion, dose response, cell-based, cherry-pick (AID 652062); assay type: functional;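 note: luciferase signal from cell-cell fusion driven by HIV-1 clade B AD8 Env; potency is for inhibitors of fusion seen as a drop in luminescence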
[12] = inhibitors of HIV Env-driven cell fusion, dose response, cherry-pick (AID 652057); assay type: functional, cell-based
HEK293 [13] = experiment: cells; conditions: Homo sapiens
[14] = CEM21 lymphoblast cell cytotoxicity, dose response, cytotoxicity control for viral fusion inhibitor project, CellTiter-Glo luminescence, cherry-picked (AID 652042); assay type: functional, cell-based;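 note: potency for signal decrease meaning cytotoxicity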
HEK293 [15] = experiment: cells; conditions: Homo sapiens; remark: listed apart in the source
[16] = off-target signal loss in HeLa-CEM21 co-culture – HeLa F-luc CTL cells, cherry-picked, counter-screen for HIV-1 Env fusion inhibitor project, dose response (AID 652040); assay type: functional, cell-based;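 note: potency for signal decrease marking cytotoxic or nonspecific inhibition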
[17] = HepG2 cell cytotoxicity, dose response, cytotoxicity control for Shn3 inhibitor project, CellTiter-Glo, cherry-picked (AID 624134); assay type: functional, cell-based
HEK293 [18] = experiment: inhibitors of LMP1-driven NF-kB reporter, dose response, cell-based, HEK293, luciferase, cherry-pick (AID 588343); assay type: functional; conditions: Homo sapiens
[19] = molecular target: COUP transcription factor 2 (Homo sapiens, UniProt P24468); experiment: Luminescence-based cell-based high throughput dose response assay to identify inhibitors of COUP-TFII (NR2F2).; assay type: functional;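 note: HEK293 cells transiently cotransfected with COUP-TFII expression vector and reporter; luciferase reporter luminescence driven by COUP-TFII from the pX2-168 reporter plasmid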
[20] = Shn3 3'UTR reporter inhibitors, dose response, cell-based, Clone20 osteoblasts, firefly luciferase, cherry-picked (AID 624132); assay type: functional;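 note: firefly luciferase luminescence from reporter carrying the Shn3 3'UTR in osteoblasts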
[21] = control 3'UTR Renilla luciferase suppression, dose response, counter-screen for Shn3 inhibitor project, cell-based, Clone20-Shn3RL, cherry-picked (AID 624133); assay type: functional
[22] = HEK293 cell cytotoxicity, dose response, cytotoxicity control, cherry-picks, set 5 (AID 1053117); assay type: functional, cell-based
[23] = molecular target: T1, RNA-binding protein pos-1 (Caenorhabditis elegans, UniProt G5EF15); experiment: inhibitors of POS-1/mex-3 RNA binding, dose response, biochemical, fluorescence polarization (AID 1964);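 note: purified POS-1 fused to maltose binding protein made in E. coli; potency of compounds blocking POS-1 binding to fluorescent RNA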
T1 sequence (G5EF15 whole entry): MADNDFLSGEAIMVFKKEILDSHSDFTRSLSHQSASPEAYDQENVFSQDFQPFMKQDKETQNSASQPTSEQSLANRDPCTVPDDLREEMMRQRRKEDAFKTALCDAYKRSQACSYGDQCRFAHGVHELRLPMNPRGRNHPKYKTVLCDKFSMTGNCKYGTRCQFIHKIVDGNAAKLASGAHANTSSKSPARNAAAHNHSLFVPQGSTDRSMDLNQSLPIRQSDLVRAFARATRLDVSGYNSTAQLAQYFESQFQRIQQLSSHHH

cells = conditions: A549
[24] = molecular target: T2, Zinc finger protein mex-5 (Caenorhabditis elegans, UniProt Q9XUB2); experiment: MEX-5/TCR-2 RNA interaction inhibitors, dose response, biochemical, C. elegans, fluorescence polarization (AID 1960)
T2 sequence (Q9XUB2 whole entry): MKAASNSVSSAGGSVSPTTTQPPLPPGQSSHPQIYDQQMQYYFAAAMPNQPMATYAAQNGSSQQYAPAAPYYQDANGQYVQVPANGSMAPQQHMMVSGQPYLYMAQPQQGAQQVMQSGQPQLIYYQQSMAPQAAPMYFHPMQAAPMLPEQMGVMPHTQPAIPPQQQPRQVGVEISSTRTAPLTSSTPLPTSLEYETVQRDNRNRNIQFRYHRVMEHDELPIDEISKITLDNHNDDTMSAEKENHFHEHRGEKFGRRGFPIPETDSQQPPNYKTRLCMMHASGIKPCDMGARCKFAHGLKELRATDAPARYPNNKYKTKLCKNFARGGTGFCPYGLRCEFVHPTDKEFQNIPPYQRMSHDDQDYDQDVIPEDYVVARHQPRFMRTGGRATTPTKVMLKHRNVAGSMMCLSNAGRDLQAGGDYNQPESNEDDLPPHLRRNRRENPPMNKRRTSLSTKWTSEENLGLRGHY

[25] = molecular target: Tyrosyl-DNA phosphodiesterase 2 (Homo sapiens, UniProt O95551); experiment: human TDP2 enzyme inhibitors, dose response, biochemical, epi absorbance, IC50 (AID 743297)
Chain of Tyrosyl-DNA phosphodiesterase 2 (O95551 whole entry): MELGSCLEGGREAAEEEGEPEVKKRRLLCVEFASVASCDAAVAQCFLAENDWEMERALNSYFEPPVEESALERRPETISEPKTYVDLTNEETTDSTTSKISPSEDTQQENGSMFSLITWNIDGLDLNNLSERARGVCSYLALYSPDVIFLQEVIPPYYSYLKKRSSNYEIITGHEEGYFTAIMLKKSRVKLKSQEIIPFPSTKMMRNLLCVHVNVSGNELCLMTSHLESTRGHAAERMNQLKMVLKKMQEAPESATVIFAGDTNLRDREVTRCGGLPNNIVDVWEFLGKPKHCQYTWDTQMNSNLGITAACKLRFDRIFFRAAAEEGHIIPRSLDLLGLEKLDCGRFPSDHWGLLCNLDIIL

Chain of 1-phosphatidylinositol 4,5-bisphosphate phosphodiesterase beta-3 (Q01970 whole entry): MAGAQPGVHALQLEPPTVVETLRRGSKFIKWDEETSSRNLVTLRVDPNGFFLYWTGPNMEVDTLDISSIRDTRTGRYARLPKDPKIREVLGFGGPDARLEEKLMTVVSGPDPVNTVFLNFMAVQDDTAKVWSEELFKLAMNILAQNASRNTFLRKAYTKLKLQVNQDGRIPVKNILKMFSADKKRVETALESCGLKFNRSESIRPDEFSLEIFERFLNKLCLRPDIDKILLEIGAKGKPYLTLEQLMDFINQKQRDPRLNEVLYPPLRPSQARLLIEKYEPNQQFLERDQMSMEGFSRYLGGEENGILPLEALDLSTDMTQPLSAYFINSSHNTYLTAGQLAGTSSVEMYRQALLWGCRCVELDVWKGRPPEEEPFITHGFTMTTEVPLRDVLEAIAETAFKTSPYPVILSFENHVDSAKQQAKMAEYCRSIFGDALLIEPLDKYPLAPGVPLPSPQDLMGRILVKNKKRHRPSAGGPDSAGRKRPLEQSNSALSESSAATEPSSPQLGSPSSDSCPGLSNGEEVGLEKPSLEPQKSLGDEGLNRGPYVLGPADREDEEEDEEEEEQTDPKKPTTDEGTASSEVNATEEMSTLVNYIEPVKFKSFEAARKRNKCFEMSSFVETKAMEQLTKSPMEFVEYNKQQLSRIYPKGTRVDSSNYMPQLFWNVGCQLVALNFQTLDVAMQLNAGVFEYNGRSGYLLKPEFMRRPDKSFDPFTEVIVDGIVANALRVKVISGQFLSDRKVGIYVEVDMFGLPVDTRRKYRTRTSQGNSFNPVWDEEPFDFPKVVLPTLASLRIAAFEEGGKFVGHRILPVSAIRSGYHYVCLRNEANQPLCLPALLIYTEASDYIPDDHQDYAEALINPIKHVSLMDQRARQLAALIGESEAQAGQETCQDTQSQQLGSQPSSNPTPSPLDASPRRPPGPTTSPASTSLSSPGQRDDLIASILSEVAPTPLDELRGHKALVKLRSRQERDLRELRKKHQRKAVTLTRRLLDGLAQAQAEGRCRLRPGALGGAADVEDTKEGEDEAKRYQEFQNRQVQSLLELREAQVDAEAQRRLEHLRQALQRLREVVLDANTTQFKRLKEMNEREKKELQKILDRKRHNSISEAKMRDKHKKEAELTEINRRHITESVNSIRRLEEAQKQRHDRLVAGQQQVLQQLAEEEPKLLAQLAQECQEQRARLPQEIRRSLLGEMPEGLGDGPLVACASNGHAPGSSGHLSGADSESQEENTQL
Chain of 1-phosphatidylinositol 4,5-bisphosphate phosphodiesterase gamma-1 (P19174 whole entry): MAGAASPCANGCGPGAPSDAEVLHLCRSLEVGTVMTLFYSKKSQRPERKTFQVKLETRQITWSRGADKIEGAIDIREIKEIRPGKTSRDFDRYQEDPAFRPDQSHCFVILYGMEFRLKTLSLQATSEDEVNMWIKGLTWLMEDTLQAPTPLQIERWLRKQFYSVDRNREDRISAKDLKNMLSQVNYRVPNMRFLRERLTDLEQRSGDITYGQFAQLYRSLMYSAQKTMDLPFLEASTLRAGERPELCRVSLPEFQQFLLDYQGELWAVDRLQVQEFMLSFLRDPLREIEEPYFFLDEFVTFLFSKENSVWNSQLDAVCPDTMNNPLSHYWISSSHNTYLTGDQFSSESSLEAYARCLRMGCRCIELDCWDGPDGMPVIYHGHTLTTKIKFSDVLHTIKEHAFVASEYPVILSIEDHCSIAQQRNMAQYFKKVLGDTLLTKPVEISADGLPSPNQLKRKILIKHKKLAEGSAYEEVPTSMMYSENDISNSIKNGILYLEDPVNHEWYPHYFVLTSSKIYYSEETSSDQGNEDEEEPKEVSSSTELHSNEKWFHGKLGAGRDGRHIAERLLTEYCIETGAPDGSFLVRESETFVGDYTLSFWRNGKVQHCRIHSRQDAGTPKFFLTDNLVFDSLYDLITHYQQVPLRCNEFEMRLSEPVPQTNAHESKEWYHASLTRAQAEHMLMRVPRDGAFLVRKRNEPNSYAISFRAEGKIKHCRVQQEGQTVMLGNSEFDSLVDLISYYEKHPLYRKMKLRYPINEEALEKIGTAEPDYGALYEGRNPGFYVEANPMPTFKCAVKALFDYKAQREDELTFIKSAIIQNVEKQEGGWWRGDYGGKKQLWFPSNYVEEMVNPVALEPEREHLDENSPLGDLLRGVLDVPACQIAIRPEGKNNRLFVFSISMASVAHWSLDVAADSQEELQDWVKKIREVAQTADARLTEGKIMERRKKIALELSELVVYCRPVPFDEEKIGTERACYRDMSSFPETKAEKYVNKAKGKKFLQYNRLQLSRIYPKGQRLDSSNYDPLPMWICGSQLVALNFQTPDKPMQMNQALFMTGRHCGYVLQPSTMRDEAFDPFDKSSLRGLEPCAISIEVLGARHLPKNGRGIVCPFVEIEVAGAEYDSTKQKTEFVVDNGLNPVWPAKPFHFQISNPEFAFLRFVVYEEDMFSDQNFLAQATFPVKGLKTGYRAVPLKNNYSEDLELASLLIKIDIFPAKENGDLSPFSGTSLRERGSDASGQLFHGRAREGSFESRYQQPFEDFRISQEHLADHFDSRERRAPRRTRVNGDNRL
Chain of COUP transcription factor 2 (P24468 whole entry): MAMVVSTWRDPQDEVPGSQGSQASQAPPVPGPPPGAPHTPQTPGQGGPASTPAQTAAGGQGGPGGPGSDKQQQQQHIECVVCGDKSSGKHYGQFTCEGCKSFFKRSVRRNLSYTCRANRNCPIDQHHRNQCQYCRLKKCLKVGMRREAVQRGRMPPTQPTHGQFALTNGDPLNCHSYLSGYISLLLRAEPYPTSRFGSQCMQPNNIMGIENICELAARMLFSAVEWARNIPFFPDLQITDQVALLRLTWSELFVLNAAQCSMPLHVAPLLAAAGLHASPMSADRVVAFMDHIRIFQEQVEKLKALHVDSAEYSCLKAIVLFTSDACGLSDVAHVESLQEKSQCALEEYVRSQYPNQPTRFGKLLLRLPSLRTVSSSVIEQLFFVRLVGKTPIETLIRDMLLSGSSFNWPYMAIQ
Chain of Disintegrin and metalloproteinase domain-containing protein 17 (P78536 whole entry, the tested form may be a part): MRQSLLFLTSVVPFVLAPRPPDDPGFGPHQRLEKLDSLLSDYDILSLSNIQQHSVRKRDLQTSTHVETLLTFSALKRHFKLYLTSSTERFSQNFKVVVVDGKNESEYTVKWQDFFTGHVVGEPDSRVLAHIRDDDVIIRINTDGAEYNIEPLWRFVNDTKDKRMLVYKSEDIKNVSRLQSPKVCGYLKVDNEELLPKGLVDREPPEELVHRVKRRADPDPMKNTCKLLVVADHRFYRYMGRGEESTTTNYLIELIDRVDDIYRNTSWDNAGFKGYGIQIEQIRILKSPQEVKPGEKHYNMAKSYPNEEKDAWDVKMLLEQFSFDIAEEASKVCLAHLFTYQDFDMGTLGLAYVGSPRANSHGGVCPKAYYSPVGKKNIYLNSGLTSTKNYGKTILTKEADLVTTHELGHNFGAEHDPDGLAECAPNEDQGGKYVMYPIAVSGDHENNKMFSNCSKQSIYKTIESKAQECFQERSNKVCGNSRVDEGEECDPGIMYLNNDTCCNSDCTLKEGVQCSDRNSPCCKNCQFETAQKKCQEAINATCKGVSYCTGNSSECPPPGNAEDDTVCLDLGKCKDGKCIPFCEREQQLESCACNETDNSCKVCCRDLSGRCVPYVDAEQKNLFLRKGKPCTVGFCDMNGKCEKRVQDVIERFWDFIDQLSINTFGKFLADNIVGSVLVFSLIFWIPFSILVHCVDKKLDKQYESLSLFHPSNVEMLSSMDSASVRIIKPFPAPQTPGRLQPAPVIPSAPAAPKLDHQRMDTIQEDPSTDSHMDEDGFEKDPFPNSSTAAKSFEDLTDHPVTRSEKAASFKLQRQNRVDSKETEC

Compound: C[C@@H]1CN([C@@H](C)CO)C(=O)c2c(c3ccccc3n2C)-c2ccccc2CO[C@@H]1CN(C)C(=O)Nc1cccc(Cl)c1Cl
AC50 [1]: 850 nM (active)
AC50 [2]: 23.5 µM (active)
AC50 [3]: 1.62 µM (active)
AC50 [4]: 1.52 µM (active)
AC50 [5]: 572 nM (active)

IC50 [6]: > 123 µM (inactive)
IC50 [7]: > 123 µM (inactive)
Compound: COc1ccccc1COC(=O)c1cccc(S(=O)(=O)N2CCCC2)c1

IC50 [6]: 47.2 µM (inactive)
IC50 [8]: > 69.6 µM (inactive)
IC50 [9]: > 69.6 µM (inactive)
IC50 [7]: 45.1 µM (inactive)
Compound: CN1C(=O)c2cc(NS(=O)(=O)c3ccc(F)cc3)ccc2OC[C@H]2O[C@@H](CC(=O)NCC(F)(F)F)CC[C@@H]21

Compound: CC(=O)Nc1ccc(N(CC(O)Cn2c3ccccc3c3ccccc32)S(=O)(=O)c2ccc(C)cc2)cc1 (configuration not stated)
AC50 [10]: 0.558 µM (active)
AC50 [11]: 2.8 µM (active)
AC50 [12]: 0.507 µM (active)
EC50 (HEK293 [13]): > 59.7 µM (inactive)
AC50 [14]: 28.4 µM (active)
EC50 (HEK293 [15]): > 59.7 µM (inactive)
AC50 [16]: 1.6 µM (active)

Compound: COc1ccc(CNc2ncnc3ccccc23)cc1
AC50 [10]: 24.9 µM (active)
AC50 [17]: 3.67 µM (active)
AC50 [11]: 5.24 µM (active)
AC50 [12]: 36.2 µM (active)
AC50 (HEK293 [18]): 33.1 µM (active)
IC50 [19]: 10.7 µM (inactive)
AC50 [20]: 674 nM (active)
AC50 [21]: 5.4 µM (active)
AC50 [16]: > 70 µM (inactive)

Compound: C=CCC[C@H](Cc1ccc(F)cc1)C(=O)OC[C@H](Cc1c[nH]c2ccccc12)NC(=O)[C@@H](CC=C)CC(=O)N[C@@H](CO)Cc1ccccc1
AC50 [22]: > 52 µM (inactive)

Compound: O=C1c2ccccc2S(=O)(=O)c2cc(N3CCC(C(=O)N4CCCCC4)CC3)ccc21
EC50 [23]: > 300 µM (not active)
AC50 (cells): > 52 µM (inactive)
EC50 [24]: > 300 µM (not active)

IC50 [25]: 77.2 µM (inactive)
Compound: COC1=C(N2CCOCC2)C(=O)c2ccccc2C1=O
